Patent US10662164B2, “Non-beta lactam antibiotics” (University of Notre Dame du Lac, priority 2014, dated 2020)
Values after ≈ are worked out from the molar mass of the structure shown. Read-outs that look alike come from different tables or passages of the source.

How the values were obtained:
S. aureus ATCC 29213 = test: MIC determination; format: cell-based, Staphylococcus aureus; conditions: for MIC: Staphylococcus aureus; for antibacterial activity in words (SAR, ring A derivatives): S. aureus ATCC 29213, compounds of Schemes 3-4
E. faecium NCTC 7171 = test: MIC determination; format: cell-based, Enterococcus faecium; conditions: for MIC: Enterococcus faecium
[1] = ATCC29213, Table 3.1 and SAR text, compounds of Schemes 2-4, read-out: S. aureus ATCC 29213 MIC
[2] = NCTC7171, Table 3.1, compounds of Schemes 2-4, read-out: E. faecium NCTC 7171 MIC
[3] = ATCC29213, read-out: S. aureus ATCC 29213 MIC
[4] = NCTC7171, read-out: E. faecium NCTC 7171 MIC
[5] = Table 3.1, compounds of Schemes 2-4

Structure (SMILES)	MIC (S. aureus ATCC 29213; [1])	MIC (E. faecium NCTC 7171; [2])	antibacterial activity in words (SAR, ring A derivatives) (S. aureus ATCC 29213)	further results
CCOP(=O)(OCC)c1ccc(-c2nc(-c3ccc(Oc4ccc(F)cc4)cc3)no2)cc1 [Compound 85c]	–	–	–	MIC (S. aureus ATCC 29213; [3]): > 128 µg/mL; MIC (E. faecium NCTC 7171; [4]): > 128 µg/mL
NS(=O)(=O)c1ccc(-c2nc(-c3ccc(Oc4ccc(C(F)(F)F)cc4)cc3)no2)cc1 [Compound 87b]	> 128 µg/mL	128 µg/mL (≈ 277 µM)	–	–
NS(=O)(=O)c1ccc(-c2nc(-c3ccc(Oc4ccc(F)cc4)cc3)no2)cc1 [Compound 87c]	> 128 µg/mL	> 128 µg/mL	–	–
NC(=O)c1ccc(-c2nc(-c3ccc(Oc4ccc(F)cc4)cc3)no2)cc1 [Compound 88c]	> 128 µg/mL	64 µg/mL (≈ 171 µM)	failed to show significant activity	–
O=C(O)c1ccc(-c2nc(-c3ccc(Oc4ccc(F)cc4)cc3)no2)cc1 [Compound 89c]	> 128 µg/mL	128 µg/mL (≈ 340 µM)	failed to show significant activity	–
COC(=O)c1ccc(-c2nc(-c3ccc(Oc4ccc(F)cc4)cc3)no2)cc1 [Compound 90c]	> 128 µg/mL	> 128 µg/mL	failed to show significant activity	–
Nc1cc(-c2nc(-c3ccc(Oc4ccc(F)cc4)cc3)no2)ccc1O [Compound 92c]	> 128 µg/mL	128 µg/mL (≈ 352 µM)	failed to show significant activity	–
COc1cc(-c2nc(-c3ccc(Oc4ccccc4)cc3)no2)ccc1N [Compound 94a]	> 128 µg/mL	> 128 µg/mL	–	–
Oc1cc(-c2nc(-c3ccc(Oc4ccccc4)cc3)no2)ccc1I [Compound 96a]	> 128 µg/mL	32 µg/mL (≈ 70.1 µM)	failed to show significant activity	–
Oc1ccccc1-c1nc(-c2ccc(Oc3ccccc3)cc2)no1 [Compound 97a]	> 128 µg/mL	> 128 µg/mL	failed to show significant activity	–
Nc1ccc(-c2nc(-c3ccc(Oc4ccccc4)cc3)no2)c(O)c1 [Compound 98a]	> 128 µg/mL	> 128 µg/mL	–	–
COc1ccc(-c2nc(-c3ccc(Oc4ccccc4)cc3)no2)cc1[N+](=O)[O-] [Compound 99a]	> 128 µg/mL	128 µg/mL (≈ 329 µM)	–	–
COc1ccc(-c2nc(-c3ccc(Oc4ccc(F)cc4)cc3)no2)cc1[N+](=O)[O-] [Compound 99c]	> 128 µg/mL	> 128 µg/mL	–	–
COc1ccc(-c2nc(-c3ccc(Oc4ccc(C(F)(F)F)cc4)cc3)no2)cc1OC [Compound 101b]	> 128 µg/mL	> 128 µg/mL	–	–
COc1ccc(-c2nc(-c3ccc(Oc4ccc(F)cc4)cc3)no2)cc1OC [Compound 101c]	> 128 µg/mL	> 128 µg/mL	–	–
FC(F)(F)c1ccc(Oc2ccc(-c3noc(-c4cc[nH]n4)n3)cc2)cc1 [Compound 102b]	> 128 µg/mL	64 µg/mL (≈ 172 µM)	–	–

Structure (SMILES)	MIC (S. aureus ATCC 29213; [1])	MIC (E. faecium NCTC 7171; [2])	antibacterial activity in words (SAR, ring A derivatives) (S. aureus ATCC 29213)	further results
C[Si](C)(C)C#Cc1c[nH]nc1-c1nc(-c2ccc(Oc3ccc(C(F)(F)F)cc3)cc2)no1 [Compound 103b, 3-(4-(4-Trifluoromethyl)phenoxy)phenyl)-5-(4-((trimethylsilyl)ethynyl-1H-pyrazol-3-yl)-1,2,4-oxadiazole]	–	–	–	S. aureus ATCC 29213 MIC (S. aureus ATCC 29213; [5]): >128 µg/mL; E. faecium NCTC 7171 MIC (E. faecium NCTC 7171; [5]): >128 µg/mL
CCC(C)Nc1c[nH]nc1-c1nc(-c2ccc(Oc3ccc(C(F)(F)F)cc3)cc2)no1 (stereo not drawn) [Compound 105b]	> 128 µg/mL	128 µg/mL (≈ 289 µM)	did not extend	–
FC(F)(F)c1ccc(Oc2ccc(-c3noc(-c4n[nH]cc4NC4CCCC4)n3)cc2)cc1 [Compound 107b]	> 128 µg/mL	> 128 µg/mL	did not extend	–
CCOP(=O)(OCC)c1c[nH]nc1-c1nc(-c2ccc(Oc3ccc(C(F)(F)F)cc3)cc2)no1 [Compound 111b]	–	–	–	MIC (S. aureus ATCC 29213; [3]): > 128 µg/mL; MIC (E. faecium NCTC 7171; [4]): > 128 µg/mL
Oc1nc(-c2ccc(Oc3ccccc3)cc2)no1 [Compound 112a]	> 128 µg/mL	> 128 µg/mL	abolishes activity	–
Oc1ccc(-c2nc(-c3ccc(Oc4ccc(F)cc4)cc3)no2)cn1 [Compound 120c]	> 128 µg/mL	64 µg/mL (≈ 183 µM)	–	–
Nc1cc(-c2nc(-c3ccc(Oc4ccc(C(F)(F)F)cc4)cc3)no2)cnc1O [Compound 121b]	> 128 µg/mL	64 µg/mL (≈ 154 µM)	–	–
Nc1cncc(-c2nc(-c3ccc(Oc4ccc(C(F)(F)F)cc4)cc3)no2)c1 [Compound 122b]	> 128 µg/mL	> 128 µg/mL	–	–
Nc1cncc(-c2nc(-c3ccc(Oc4ccc(F)cc4)cc3)no2)c1 [Compound 122c]	> 128 µg/mL	128 µg/mL (≈ 367 µM)	–	–
FC(F)(F)c1ccc(Oc2ccc(-c3noc(-c4n[nH]c5ccccc45)n3)cc2)cc1 [Compound 123b]	> 128 µg/mL	> 128 µg/mL	–	–
c1ccc(Oc2ccc(-c3noc(-c4ccc5[nH]ncc5c4)n3)cc2)cc1 [Compound 124a]	> 128 µg/mL	64 µg/mL (≈ 181 µM)	No activity	–
FC(F)(F)c1ccc(Oc2ccc(-c3noc(-c4c[nH]c5ncccc45)n3)cc2)cc1 [Compound 125b]	> 128 µg/mL	32 µg/mL (≈ 75.8 µM)	–	–
Fc1ccc(Oc2ccc(-c3noc(-c4c[nH]c5ncccc45)n3)cc2)cc1 [Compound 125c]	> 128 µg/mL	64 µg/mL (≈ 172 µM)	–	–
c1ccc(Oc2ccc(-c3noc(C4CCOCC4)n3)cc2)cc1 [Compound 131a]	> 128 µg/mL	> 128 µg/mL	–	–
NCCCCc1nc(-c2ccc(Oc3ccccc3)cc2)no1 [Compound 137a]	≥ 32 µg/mL	32 µg/mL (≈ 103 µM)	–	–

The next lines start with results.

MIC (S. aureus ATCC 29213; [1])	MIC (E. faecium NCTC 7171; [2])	Structure (SMILES)	antibacterial activity in words (SAR, ring A derivatives) (S. aureus ATCC 29213)	further results
> 128 µg/mL	> 128 µg/mL	Fc1ccc(Oc2ccc(-c3noc(-c4ccc(Br)cc4)n3)cc2)cc1 [Compound 81c]	–	–
> 128 µg/mL	32 µg/mL (≈ 67.3 µM)	CS(=O)(=O)Nc1ccc(-c2nc(-c3ccc(Oc4ccc(C(F)(F)F)cc4)cc3)no2)cc1 [Compound 86b]	–	–
> 128 µg/mL	> 128 µg/mL	O=[N+]([O-])c1cc(-c2nc(-c3ccc(Oc4ccc(F)cc4)cc3)no2)ccc1O [Compound 91c]	failed to show significant activity	–
> 128 µg/mL	> 128 µg/mL	Oc1cccc(-c2nc(-c3ccc(Oc4ccccc4)cc3)no2)c1 [Compound 95a]	failed to show significant activity	–
> 128 µg/mL	> 128 µg/mL	COc1ccc(-c2nc(-c3ccc(Oc4ccc(C(F)(F)F)cc4)cc3)no2)cc1[N+](=O)[O-] [Compound 99b]	–	–
> 128 µg/mL	> 128 µg/mL	COc1ccc(-c2nc(-c3ccc(Oc4ccccc4)cc3)no2)cc1N [Compound 100a]	–	–
> 128 µg/mL	32 µg/mL (≈ 99.3 µM)	Fc1ccc(Oc2ccc(-c3noc(-c4cc[nH]n4)n3)cc2)cc1 [Compound 102c]	–	–
> 128 µg/mL	> 128 µg/mL	CCCCNc1c[nH]nc1-c1nc(-c2ccc(Oc3ccc(C(F)(F)F)cc3)cc2)no1 [Compound 104b]	did not extend	–
> 128 µg/mL	128 µg/mL (≈ 273 µM)	FC(F)(F)c1ccc(Oc2ccc(-c3noc(-c4n[nH]cc4NC4CCCCC4)n3)cc2)cc1 [Compound 106b]	did not extend	–
> 128 µg/mL	> 128 µg/mL	CC(C)(C)OC(=O)N1CCC(Nc2c[nH]nc2-c2nc(-c3ccc(Oc4ccc(C(F)(F)F)cc4)cc3)no2)CC1 [Compound 110b]	–	–
> 128 µg/mL	64 µg/mL (≈ 203 µM)	c1ccc(Oc2ccc(-c3noc(-c4ccncc4)n3)cc2)cc1 [Compound 114a]	No activity	–
> 128 µg/mL	64 µg/mL (≈ 193 µM)	[O-][n+]1ccc(-c2nc(-c3ccc(Oc4ccccc4)cc3)no2)cc1 [Compound 115a]	No activity	–
> 128 µg/mL	> 128 µg/mL	FC(F)(F)c1ccc(Oc2ccc(-c3noc(-c4nc[nH]n4)n3)cc2)cc1 [Compound 116b]	No activity	–
16 µg/mL (≈ 42.9 µM)	> 128 µg/mL	FC(F)(F)c1ccc(Oc2ccc(-c3noc(-c4cnn[nH]4)n3)cc2)cc1 [Compound 117b]	No activity	–
> 128 µg/mL	64 µg/mL (≈ 176 µM)	CC(C)c1cc(-c2nc(-c3ccc(Oc4ccc(F)cc4)cc3)no2)[nH]n1 [Compound 119c]	No activity	–
> 128 µg/mL	32 µg/mL (≈ 80.1 µM)	Oc1ccc(-c2nc(-c3ccc(Oc4ccc(C(F)(F)F)cc4)cc3)no2)cn1 [Compound 120b]	–	–
> 128 µg/mL	128 µg/mL (≈ 351 µM)	Nc1cc(-c2nc(-c3ccc(Oc4ccc(F)cc4)cc3)no2)cnc1O [Compound 121c]	–	–
> 128 µg/mL	16 µg/mL (≈ 43 µM)	Fc1ccc(Oc2ccc(-c3noc(-c4n[nH]c5ccccc45)n3)cc2)cc1 [Compound 123c]	–	–
128 µg/mL (≈ 381 µM)	64 µg/mL (≈ 190 µM)	Nc1c[nH]c(-c2nc(-c3ccc(Oc4ccc(F)cc4)cc3)no2)c1 [Compound 126c]	No activity	–
> 128 µg/mL	> 128 µg/mL	Fc1ccc(Oc2ccc(-c3noc(-c4cc[nH]c4)n3)cc2)cc1 [Compound 127c]	No activity	–
